Measured values taken from US6339064B1, “Benzylglycosylamides as inhibitors of smooth muscle cell proliferation” (American Home Products Corporation, priority 1998, dated 2002).

Test system: Porcine Smooth Muscle Cell
Assay: Effects of compounds on cell proliferation using 3H thymidine incorporation (porcine smooth muscle cell antiproliferation)
Format: cell-based
Conditions: Sus scrofa, serum/growth factor stimulated cells, 24-36 h incubation
Protocol: Effects of Compounds on Cell Proliferation Using ^3H Thymidine Incorporation
Human and porcine smooth muscle cells were tested in early passage (generally passage 3-7) at sub-confluent conditions. Cultures were grown in 16 mm (24 well) multi-well culture dishes in medium 199 supplemented with 10% fetal bovine serum and 2% antibiotic/antimycotic. At sub-confluence, the cells were placed in a defined serum free medium (AIM-V; Gibco) for 24-48 h prior to initiating the experimental protocol.
Compounds were added to each well at 50 fold dilution (20 μL/well) and the plates were incubated for 24-36 h at 37° C. in 5% CO2. Compounds were initially dissolved in 50% ethanol and serially diluted into media. Compounds were routinely evaluated at concentrations from 1 to 100 μM. As a control, grade II porcine intestinal mucosal herapin (sodium salt) was routinely evaluated in all cell preparations at concentrations from 0.1 to 100 μg/mL.
At the completion of the test procedure, plates were placed on ice, washed three times with ice cold phosphate buffered saline (PBS) and incubated in ice cold 10% trichloroacetic acid (TCA) got 30 min to remove acid soluble proteins. Solution was transferred to scintillation vials containing 0.4 N HCl (500 μL/vial to neutralize NaOH) and each well was rinsed two times with water (500 μL) for a total volume of 2 mL/vial.
Data was obtained, in triplicate, for both control and experimental samples. Control (100%) data was obtained from maximally stimulated cells, as the result of growth factor or serum stimulation. Experimental data was obtained from cells maximally stimulated with growth factor or serum and treated with compound. Data are expressed as an IC50 in Table I below.

Row | Structure (SMILES) | IC50
1 | COc1cc(C(=O)N[C@@H]2O[C@H](COC(C)=O)[C@@H](O[C@H]3O[C@H](COC(C)=O)[C@@H](OC(C)=O)[C@H](OC(C)=O)[C@H]3OC(C)=O)[C@H](OC(C)=O)[C@H]2OC(C)=O)ccc1Cl [Example 22, 4-Chloro-3-methoxy-N-[2,3,6-tri-O-acetyl-4-O-(2,3,4,6-tetra-O-acetyl-α-D-glucopyranosyl)-β-D-glucopyranosyl]benzamide] | 18.5 µM
2 | CC(=O)Nc1cc(C(=O)N[C@@H]2O[C@H](COC(C)=O)[C@@H](O[C@H]3O[C@H](COC(C)=O)[C@@H](OC(C)=O)[C@H](OC(C)=O)[C@H]3OC(C)=O)[C@H](OC(C)=O)[C@H]2OC(C)=O)ccc1Cl [Example 3, 3-(Acetylamino)-4-chloro-N-[2,3,6-tri-O-acetyl-4-O-(2,3,4,6-tetra-O-acetyl-α-D-glucopyranosyl)-β-D-glucopyranosyl}-benzamide] | 54.3 µM
3 | CC(=O)OC[C@H]1O[C@@H](NC(=O)c2ccc(Cl)c(N)c2)[C@H](OC(C)=O)[C@@H](OC(C)=O)[C@@H]1O[C@H]1O[C@H](COC(C)=O)[C@@H](OC(C)=O)[C@H](OC(C)=O)[C@H]1OC(C)=O [Example 2, 3-Amino-4-chloro-N-[2,3,6-tri-O-acetyl-4-O-(2,3,4,6-tetra-O-acetyl-α-D-glucopyranosyl)-β-D-glucopyranosyl}-benzamide] | 11.1 µM
4 | CCCCOc1ccc(C(=O)N[C@@H]2O[C@H](COC(C)=O)[C@@H](O[C@H]3O[C@H](COC(C)=O)[C@@H](OC(C)=O)[C@H](OC(C)=O)[C@H]3OC(C)=O)[C@H](OC(C)=O)[C@H]2OC(C)=O)cc1Cl [Example 18, 4-butoxy-3-chloro-N-[2,3,6-tri-O-acetyl-4-O-(2,3,4,6-tetra-O-acetyl-α-D-glucopyranosyl)-β-D-glucopyranosyl]benzamide] | 3.5 µM

Same assay, conditions: at 50 μM, control (100%) = maximally stimulated cells

Row | Structure (SMILES) | Porcine Smooth Muscle Cell Antiproliferation, % at 50 μM
5 | CC(=O)OCC1OC(NC(=O)c2ccc(OCCCC#N)c([N+](=O)[O-])c2)C(OC(C)=O)C(OC(C)=O)C1OC1OC(COC(C)=O)C(OC(C)=O)C(OC(C)=O)C1OC(C)=O (stereo not shown) [Example 28] | 3% at 50
6 | N#CCCCOc1ccc(C(=O)NC2OC(CO)C(OC3OC4COC(c5ccccc5)OC4C(O)C3O)C(O)C2O)cc1[N+](=O)[O-] [Example 29, N-(4′,6′-O-Benzylidene-β-D-maltosyl)-4-(4-nitrilo-butoxy)-3-nitro-benzamide] | 4% at 50
7 | O=C(N[C@@H]1O[C@H](CO)[C@@H](O[C@H]2O[C@@H]3COC(c4ccccc4)O[C@H]3[C@H](O)[C@H]2O)[C@H](O)[C@H]1O)c1cccc(C(F)(F)F)c1 (stereo partly drawn) [Example 39, N-(4′,6′-O-Benzylidene-β-D-maltosyl)-3-(trifluoromethyl)-Benzamide] | 15% at 50
8 | O=C(N[C@@H]1O[C@H](CO)[C@@H](O[C@H]2O[C@@H]3COC(c4ccccc4)O[C@H]3[C@H](O)[C@H]2O)[C@H](O)[C@H]1O)c1ccc(Cl)cc1 (stereo partly drawn) [Example 11, N-(4′,6′-O-Benzylidene-β-D-maltosyl)-4-chloro-benzamide] | 15% at 50
9 | COc1ccc(CC(=O)NC2OC(CO)C(OC3OC4COC(c5ccccc5)OC4C(O)C3O)C(O)C2O)cc1OC [Example 46, N-(4′,6′-Benzylidene-β-D-maltosyl)-2-(3,4-dimethoxy-phenyl)-acetamide] | 0% at 50
10 | CC(=O)OC1C(NC(=O)c2ccc(OCCCC#N)c(Cl)c2)OC(COC(=O)c2ccccc2)C(OC2OC3COC(c4ccccc4)OC3C(OC(C)=O)C2OC(C)=O)C1OC(C)=O [Example 17, N-(2,2′,3,3′-tetra-O-Acetyl-6-O-benzoyl-4′,6′-O-benzylidene-β-D-maltosyl)-3-chloro-4-(4-nitrilo-butoxy)-benzamide] | 33% at 50
11 | N#CCCCOc1ccc(C(=O)NC2OC(CO)C(OC3OC4COC(c5ccccc5)OC4C(O)C3O)C(O)C2O)cc1Cl [Example 15, N-(4′,6′-O-Benzylidene-β-D-maltosyl)-3-chloro-4-(4-nitrilo-butoxy)-benzamide] | 30% at 50

Same assay, conditions: serum/growth factor stimulated cells, 24-36 h incubation

Row | Structure (SMILES) | IC50
12 | COc1ccc(C(=O)N[C@@H]2O[C@H](COC(C)=O)[C@@H](O[C@H]3O[C@H](COC(C)=O)[C@@H](OC(C)=O)[C@H](OC(C)=O)[C@H]3OC(C)=O)[C@H](OC(C)=O)[C@H]2OC(C)=O)cc1Cl [Example 44, N-(Hepta-O-acetyl-β-D-maltosyl)-3-chloro-4-methoxy-benzamide] | 5.4 µM
13 | CCCCOc1c(Cl)cc(C(=O)N[C@@H]2O[C@H](COC(C)=O)[C@@H](O[C@H]3O[C@H](COC(C)=O)[C@@H](OC(C)=O)[C@H](OC(C)=O)[C@H]3OC(C)=O)[C@H](OC(C)=O)[C@H]2OC(C)=O)cc1Cl [Example 49, N-(2,2′,3,3′,4′,6,6′-Hepta-O-acetyl-β-D-maltosyl)-4-butoxy-3,5-dichloro-benzylamide] | 12.6 µM
14 | CC(=O)OC[C@H]1O[C@@H](NC(=O)c2cncc(Br)c2)[C@H](OC(C)=O)[C@@H](OC(C)=O)[C@@H]1O[C@H]1O[C@H](COC(C)=O)[C@@H](OC(C)=O)[C@H](OC(C)=O)[C@H]1OC(C)=O [Example 37, N-(Hepta-O-acetyl-β-D-maltosyl)-5-bromopyridine-3-carboxamide] | 16.4 µM
15 | CCCCOc1c(Cl)cc(C(=O)N[C@@H]2O[C@H](CO)[C@@H](O[C@H]3O[C@H](CO)[C@@H](O)[C@H](O)[C@H]3O)[C@H](O)[C@H]2O)cc1Cl [Example 42, 4-Butoxy-3,5-dichloro-N-β-D-maltosyl-benzamide] | 28.9 µM
16 | CC(=O)OC[C@H]1O[C@@H](NC(=O)c2ccc(C)nc2)[C@H](OC(C)=O)[C@@H](OC(C)=O)[C@@H]1O[C@H]1O[C@H](COC(C)=O)[C@@H](OC(C)=O)[C@H](OC(C)=O)[C@H]1OC(C)=O [Example 41, N-(Hepta-O-acetyl-β-D-maltosyl)-6-methylpyridine-3-carboxamide] | 65.8 µM
17 | CC(=O)Nc1cc(CC(=O)N[C@@H]2O[C@H](COC(=O)c3ccccc3)[C@@H](O[C@H]3O[C@@H]4COC(c5ccccc5)O[C@H]4[C@H](O)[C@H]3O)[C@H](O)[C@H]2O)ccc1Cl (stereo partly shown) [Example 51] | 0.916 µM
18 | COc1ccc(CC(=O)N[C@@H]2O[C@H](COC(C)=O)[C@@H](O[C@H]3O[C@H](COC(C)=O)[C@@H](OC(C)=O)[C@H](OC(C)=O)[C@H]3OC(C)=O)[C@H](OC(C)=O)[C@H]2OC(C)=O)cc1OC [Example 45, N-(2,2′,3,3′,4′,6,6′-hepta-O-acetyl-β-D-maltosyl)-1-(3,4-dimethoxy)-phenyl-acetamide] | 16.6 µM
19 | O=C(NC1OC(COC(=O)c2ccccc2)C(OC2OC3COC(c4ccccc4)OC3C(O)C2O)C(O)C1O)c1ccc(Cl)c([N+](=O)[O-])c1 [Example 7, (R)-4-chloro-N-[(6-O-benzoyl-4′,6′-O-benzylidene)-β-D-maltosyl]-3-nitro-benzamide] | 0.55 µM
20 | CCCCOc1c(Cl)cc(C(=O)NC2OC(CO)C(OC3OC4COC(c5ccccc5)OC4C(O)C3O)C(O)C2O)cc1Cl [Example 43, N-(4′,6′-O-Benzylidene-β-D-maltosyl)-4-butoxy-3,5-dichloro-benzamide] | 44.5 µM
21 | CCCCOc1ccc(C(=O)N[C@@H]2O[C@H](COC(=O)c3ccccc3)[C@@H](O[C@H]3O[C@@H]4COC(c5ccccc5)O[C@H]4[C@H](OC(C)=O)[C@H]3OC(C)=O)[C@H](OC(C)=O)[C@H]2OC(C)=O)cc1Cl (stereo partly drawn) [Example 21, 4-Butoxy-3-chloro-N-[(2,3,2′,3′-tetra-O-acetyl-6-O-benzoyl-4′,6′-O-benzylidene)-β-D-maltosyl]-benzamide] | 9.8 µM
22 | CC(=O)OC[C@H]1O[C@@H](NC(=O)c2cccc(C(F)(F)F)c2)[C@H](OC(C)=O)[C@@H](OC(C)=O)[C@@H]1O[C@H]1O[C@H](COC(C)=O)[C@@H](OC(C)=O)[C@H](OC(C)=O)[C@H]1OC(C)=O [Example 38, N-(Hepta-O-acetyl-β-D-maltosyl)-3-(trifluoromethyl)-benzamide] | 5.8 µM
23 | CCCCOc1c(Cl)cc(C(=O)NC2OC(COC(C)=O)C(OC3OC(COC(C)=O)C(OC(C)=O)C(OC(C)=O)C3OC(C)=O)C(OC(C)=O)C2OC(C)=O)cc1OC [Example 25, N-(2,2′,3,3′,4,6,6′-hepta-O-acetyl-β-D-maltosyl]-4-butoxy-5-chloro-3-methoxy-benzamide] | 2.7 µM
24 | COc1cc(C(=O)NC2OC(COC(=O)c3ccccc3)C(OC3OC4COC(c5ccccc5)OC4C(O)C3O)C(O)C2O)ccc1Cl [Example 24, N-(6-O-Benzoyl-4′,6′-O-benzylidene-β-D-maltosyl)-4-chloro-3-methoxy-benzamide] | 2 µM
25 | O=C(NC1OC(COC(=O)c2ccccc2)C(OC2OC3COC(c4ccccc4)OC3C(O)C2O)C(O)C1O)c1ccc(Cl)cc1 [Example 12, N-(6-O-benzoyl-4′,6′-O-benzylidene-β-D-maltosyl)-4-chloro-benzamide] | 49.2 µM

Test system: not given
Assay: not given
Conditions: not given

Row | melting point | Structure (SMILES)
26 | 106 to 110 °C | COc1cc(C(=O)N[C@@H]2O[C@H](COC(C)=O)[C@@H](O[C@H]3O[C@H](COC(C)=O)[C@@H](OC(C)=O)[C@H](OC(C)=O)[C@H]3OC(C)=O)[C@H](OC(C)=O)[C@H]2OC(C)=O)ccc1Cl [Example 22, 4-Chloro-3-methoxy-N-[2,3,6-tri-O-acetyl-4-O-(2,3,4,6-tetra-O-acetyl-α-D-glucopyranosyl)-β-D-glucopyranosyl]benzamide]
27 | 122 to 124 °C | CC(=O)Nc1cc(C(=O)N[C@@H]2O[C@H](COC(C)=O)[C@@H](O[C@H]3O[C@H](COC(C)=O)[C@@H](OC(C)=O)[C@H](OC(C)=O)[C@H]3OC(C)=O)[C@H](OC(C)=O)[C@H]2OC(C)=O)ccc1Cl [Example 3, 3-(Acetylamino)-4-chloro-N-[2,3,6-tri-O-acetyl-4-O-(2,3,4,6-tetra-O-acetyl-α-D-glucopyranosyl)-β-D-glucopyranosyl}-benzamide]
28 | 115 to 119 °C | CC(=O)OC[C@H]1O[C@@H](NC(=O)c2ccc(Cl)c(N)c2)[C@H](OC(C)=O)[C@@H](OC(C)=O)[C@@H]1O[C@H]1O[C@H](COC(C)=O)[C@@H](OC(C)=O)[C@H](OC(C)=O)[C@H]1OC(C)=O [Example 2, 3-Amino-4-chloro-N-[2,3,6-tri-O-acetyl-4-O-(2,3,4,6-tetra-O-acetyl-α-D-glucopyranosyl)-β-D-glucopyranosyl}-benzamide]
